In patent US20020071842A1, “Soluble CD1 compositions and uses thereof” (priority 2000, published 2002):

Key:
Assay in all cases: Plate-bound mCD1d fusion protein hybridoma stimulation assay (IL-2 ELISA)
Assay type in all cases: cell-based, mouse
24.8.A hybridoma = conditions: for IL-2 secretion: 24.8 A NKT hybridoma, plate-bound mCD1d-IgGFc2a fusion protein preincubated with lipid antigen; for IL-2 response to mCD1d fusion protein pre-treated with purified or synthetic lipid: 24.8.A hybridoma, compared to untreated or buffer treated fusion protein
Description: (§1) The CD1d-restricted T cell clones 24.7, 24.8, 24.9 (NKT cell) and 14S.6, 14S.7, 14S.10, and 14S.15 (diverse TCRs) were all derived from spleen of wild type C57BL/6 mice, as described previously (Behar, S. M. et al., J. Immunol., 162:161-7 (1999)). To generate T cell hybridomas, the activated T cells were fused to the aminopterin-sensitive BW5147 αβTCR^− thymoma cell line using PEG1500, and hybrids were selected in HAT medium (Life Technologies, Gaithersburg, Md.). Resulting TT hybridomas were tested for recognition of RMA-S cells transfected with mCD1D1 compared to untransfected RMA-S cells, as described below. […] The hybridomas are distinguished from the original T cell clones by the addition of a letter to their names. The KT/7, KT/12, KT/22, and KT/23 and Vβ/9 NKT cell hybridomas were derived from NK1.1^+ T cells enriched from spleen of C57BL/6 mice by depletion of CD8+ T cells, naive T cells, and B cells by mAbs (anti-B220, CD8, and CD62L, or anti-CD8α, CD8β, and Me114) bound to magnetic microbeads, or to plastic. The purified cells were stimulated either by the anti-CD3 KT3 mAb (KT/7, KT/12, KT/22, KT/23), or by an anti-Vβ8.2 mAb (Vβ/9), and addition of IL-2 or IL-2 and IL-7. After 4-5 days of culture the cells were fused with BW5147 thymoma cells. The VII68, VIII24, XVI9, and XV104 diverse TCR hybridomas were generated from CD4^+ T cells from class 110 mice, as described previously (Cardell, S. et al., J. Exp. Med., 182:993-1004 (1995)). The DN32D3 hybridoma was derived as described (Lantz, O., and Bendelac, A., J. Exp. Med., 180:1097-106 (1994).
(§2) To test for recognition of the mCD1d fusion protein and purified or synthetic antigens, 96 well protein A coated plates (Pierce Chemical Company) were incubated with 400-600 ng/well of the fusion protein or a negative control IgG2a antibody, RPC5.4 or UPC10, in PBS, at pH 7.2. Lipid antigens were diluted into PBS and added where specified at the indicated molar ratio of antigen to fusion protein, (when not specified the ratio was 40:1). Protein A plates containing the fusion protein and antigen were incubated 24-48 hr at 37° C., then washed three times with 200 μl/well sterile PBS, pH 7.2, and two times with 200 μl/well sterile culture medium (containing RPMI supplemented with L-glutamine and penicillin/streptomycin, Life Technologies, Gaithersburg, Md., and 10% bovine calf serum, Hyclone Laboratories, Logan, Utah). For assays in which the PI was phospholipase treated, it was first diluted into 0.01M Tris, 0.15M NaCl, pH 7.5, containing 0.25 U PI-specific phospholipase C or 0.5 U phospholipase D (Sigma, St Louis, Mo.), and incubated 30 minutes at room temperature, then added to the protein A plates as described above. For assays in which the pH was varied during antigen incubation with the fusion protein, the fusion protein and α-GalCer were diluted into a 20 mM citrate/phosphate buffer of the specified pH, which contained 0.15 M NaCl, and after incubation, the samples were neutralized by addition of 1M Tris, pH 7.5. Hybridoma cells were added to fusion protein/antigen treated plates at a concentration of 1×10^5 cells/well, in a total volume of 150 μl/well. Assays were performed using 2-6 replicate wells. In some assays, an anti-mCD1d blocking antibody (19G11) was included at a final concentration of 20 μg/ml. The plates were incubated at 37° C. for 16-20 hr, and culture supernatants were withdrawn for analysis. Each experiment was performed at least three times.
(§3) IL-2 secreted in the hybridoma stimulation assays was quantitated in a double antibody sandwich ELISA, by comparison to a standard curve of purified murine IL-2 (Pharmingen, San Diego, Calif.). Hybridoma plate stimulation supernatants (used either neat or diluted) and serially diluted IL-2 standards were added to 96 well ELISA plates coated with a rat anti-mouse IL-2 capture antibody (Pharmingen).

KT/12 hybridoma = conditions: KT/12 NKT hybridoma; plate-bound mCD1d-IgGFc2a fusion protein preincubated with lipid antigen
Description: as §1, §2
as §3, with “(Pharmingen). […]” for “(Pharmingen).”

24.7.C hybridoma = conditions: 24 7.C NKT hybridoma; plate-bound mCD1d-IgGFc2a fusion protein preincubated with lipid antigen
Description: as §1, §2
as §3, with “(Pharmingen). […]” for “(Pharmingen).”

24.9.E hybridoma = conditions: for IL-2 secretion: 24.9 E NKT hybridoma, plate-bound mCD1d-IgGFc2a fusion protein preincubated with lipid antigen
Description: as §1, §2
as §3, with “(Pharmingen). […]” for “(Pharmingen).”

KT/22 hybridoma = conditions: KT/22 NKT hybridoma; plate-bound mCD1d-IgGFc2a fusion protein preincubated with lipid antigen
Description: as §1, §2
as §3, with “(Pharmingen). […]” for “(Pharmingen).”

14S.15.A hybridoma = conditions: 14S.15.A diverse TCR hybridoma; plate-bound mCD1d-IgGFc2a fusion protein preincubated with lipid antigen
Description: as §1, §2
as §3, with “(Pharmingen). […]” for “(Pharmingen).”

XV19 hybridoma = conditions: XV19 diverse TCR hybridoma; plate-bound mCD1d-IgGFc2a fusion protein preincubated with lipid antigen
Description: as §1, §2
as §3, with “(Pharmingen). […]” for “(Pharmingen).”

14S.6.A hybridoma = conditions: 14S.6.A diverse TCR hybridoma; plate-bound mCD1d-IgGFc2a fusion protein preincubated with lipid antigen
Description: as §1, §2
as §3, with “(Pharmingen). […]” for “(Pharmingen).”

XV104 hybridoma = conditions: XV104 diverse TCR hybridoma; plate-bound mCD1d-IgGFc2a fusion protein preincubated with lipid antigen
Description: as §1, §2
as §3, with “(Pharmingen). […]” for “(Pharmingen).”

14S.7.N hybridoma = conditions: 14S.7.N diverse TCR hybridoma; plate-bound mCD1d-IgGFc2a fusion protein preincubated with lipid antigen
Description: as §1, §2
as §3, with “(Pharmingen). […]” for “(Pharmingen).”

KT/23 hybridoma = conditions: KT/23 NKT hybridoma; plate-bound mCD1d-IgGFc2a fusion protein preincubated with lipid antigen
Description: as §1, §2
as §3, with “(Pharmingen). […]” for “(Pharmingen).”

DN32D3 hybridoma = conditions: DN32D3 NKT hybridoma; plate-bound mCD1d-IgGFc2a fusion protein preincubated with lipid antigen
Description: as §1, §2
as §3, with “(Pharmingen). […]” for “(Pharmingen).”

KT/7 hybridoma = conditions: KT/7 NKT hybridoma; plate-bound mCD1d-IgGFc2a fusion protein preincubated with lipid antigen
Description: as §1, §2
as §3, with “(Pharmingen). […]” for “(Pharmingen).”

14S.10.C hybridoma = conditions: 14S.10 C diverse TCR hybridoma; plate-bound mCD1d-IgGFc2a fusion protein preincubated with lipid antigen
Description: as §1, §2
as §3, with “(Pharmingen). […]” for “(Pharmingen).”

Vβ/9 hybridoma = conditions: Vβ/9 NKT hybridoma; plate-bound mCD1d-IgGFc2a fusion protein preincubated with lipid antigen
Description: as §1, §2
as §3, with “(Pharmingen). […]” for “(Pharmingen).”

VIII24 hybridoma = conditions: VIII24 diverse TCR hybridoma; plate-bound mCD1d-IgGFc2a fusion protein preincubated with lipid antigen
Description: as §1, §2
as §3, with “(Pharmingen). […]” for “(Pharmingen).”

VII68 hybridoma = conditions: VII68 diverse TCR hybridoma; plate-bound mCD1d-IgGFc2a fusion protein preincubated with lipid antigen
Description: as §1, §2
as §3, with “(Pharmingen). […]” for “(Pharmingen).”

| Substance | IL-2 secretion (24.8.A hybridoma) | IL-2 secretion (KT/12 hybridoma) | IL-2 secretion (24.7.C hybridoma) | IL-2 response to mCD1d fusion protein pre-treated with purified or synthetic lipid (24.9.E hybridoma; 24.9.E hybridoma) | IL-2 secretion (24.9.E hybridoma) | IL-2 secretion (KT/22 hybridoma) | IL-2 secretion (14S.15.A hybridoma) | IL-2 secretion (XV19 hybridoma) | IL-2 secretion (14S.6.A hybridoma) | IL-2 secretion (XV104 hybridoma) | IL-2 secretion (14S.7.N hybridoma) | IL-2 secretion (KT/23 hybridoma) | IL-2 secretion (DN32D3 hybridoma) | IL-2 secretion (KT/7 hybridoma) | IL-2 secretion (14S.10.C hybridoma) | IL-2 secretion (Vβ/9 hybridoma) | IL-2 secretion (VIII24 hybridoma) | IL-2 secretion (VII68 hybridoma) | IL-2 response to mCD1d fusion protein pre-treated with purified or synthetic lipid (24.8.A hybridoma) |
| --- | --- | --- | --- | --- | --- | --- | --- | --- | --- | --- | --- | --- | --- | --- | --- | --- | --- | --- | --- |
| gangliotriosyl ceramide [aGM2] | + (“+” indicates 50-250 pg/ml) | 0 (A “0” indicates a mean of less than 50 pg/ml IL-2 was secreted) | 0 (A “0” indicates a mean of less than 50 pg/ml IL-2 was secreted) | not recognized | 0 (A “0” indicates a mean of less than 50 pg/ml IL-2 was secreted) | 0 (A “0” indicates a mean of less than 50 pg/ml IL-2 was secreted) | 0 (A “0” indicates a mean of less than 50 pg/ml IL-2 was secreted) | 0 (A “0” indicates a mean of less than 50 pg/ml IL-2 was secreted) | 0 (A “0” indicates a mean of less than 50 pg/ml IL-2 was secreted) | 0 (A “0” indicates a mean of less than 50 pg/ml IL-2 was secreted) | 0 (A “0” indicates a mean of less than 50 pg/ml IL-2 was secreted) | 0 (A “0” indicates a mean of less than 50 pg/ml IL-2 was secreted) | 0 (A “0” indicates a mean of less than 50 pg/ml IL-2 was secreted) | 0 (A “0” indicates a mean of less than 50 pg/ml IL-2 was secreted) | 0 (A “0” indicates a mean of less than 50 pg/ml IL-2 was secreted) | 0 (A “0” indicates a mean of less than 50 pg/ml IL-2 was secreted) | 0 (A “0” indicates a mean of less than 50 pg/ml IL-2 was secreted) | 0 (A “0” indicates a mean of less than 50 pg/ml IL-2 was secreted) | – |
| phosphatidylcholine [PC] | + (“+” indicates 50-250 pg/ml) | 0 (A “0” indicates a mean of less than 50 pg/ml IL-2 was secreted) | 0 (A “0” indicates a mean of less than 50 pg/ml IL-2 was secreted) | – | 0 (A “0” indicates a mean of less than 50 pg/ml IL-2 was secreted) | 0 (A “0” indicates a mean of less than 50 pg/ml IL-2 was secreted) | 0 (A “0” indicates a mean of less than 50 pg/ml IL-2 was secreted) | 0 (A “0” indicates a mean of less than 50 pg/ml IL-2 was secreted) | 0 (A “0” indicates a mean of less than 50 pg/ml IL-2 was secreted) | 0 (A “0” indicates a mean of less than 50 pg/ml IL-2 was secreted) | 0 (A “0” indicates a mean of less than 50 pg/ml IL-2 was secreted) | 0 (A “0” indicates a mean of less than 50 pg/ml IL-2 was secreted) | 0 (A “0” indicates a mean of less than 50 pg/ml IL-2 was secreted) | 0 (A “0” indicates a mean of less than 50 pg/ml IL-2 was secreted) | 0 (A “0” indicates a mean of less than 50 pg/ml IL-2 was secreted) | 0 (A “0” indicates a mean of less than 50 pg/ml IL-2 was secreted) | 0 (A “0” indicates a mean of less than 50 pg/ml IL-2 was secreted) | 0 (A “0” indicates a mean of less than 50 pg/ml IL-2 was secreted) | did not reproducibly significantly enhance reactivity |
| phosphatidylserine [PS] | + (“+” indicates 50-250 pg/ml) | 0 (A “0” indicates a mean of less than 50 pg/ml IL-2 was secreted) | 0 (A “0” indicates a mean of less than 50 pg/ml IL-2 was secreted) | – | 0 (A “0” indicates a mean of less than 50 pg/ml IL-2 was secreted) | 0 (A “0” indicates a mean of less than 50 pg/ml IL-2 was secreted) | 0 (A “0” indicates a mean of less than 50 pg/ml IL-2 was secreted) | 0 (A “0” indicates a mean of less than 50 pg/ml IL-2 was secreted) | 0 (A “0” indicates a mean of less than 50 pg/ml IL-2 was secreted) | 0 (A “0” indicates a mean of less than 50 pg/ml IL-2 was secreted) | 0 (A “0” indicates a mean of less than 50 pg/ml IL-2 was secreted) | 0 (A “0” indicates a mean of less than 50 pg/ml IL-2 was secreted) | 0 (A “0” indicates a mean of less than 50 pg/ml IL-2 was secreted) | 0 (A “0” indicates a mean of less than 50 pg/ml IL-2 was secreted) | 0 (A “0” indicates a mean of less than 50 pg/ml IL-2 was secreted) | 0 (A “0” indicates a mean of less than 50 pg/ml IL-2 was secreted) | 0 (A “0” indicates a mean of less than 50 pg/ml IL-2 was secreted) | 0 (A “0” indicates a mean of less than 50 pg/ml IL-2 was secreted) | did not reproducibly significantly enhance reactivity |
